pIC50: −log10 of the molar value.
How the values were obtained:
hTDP2 DT40 cells = assay type: cell-based; settings: different concentrations of EPT
recombinant human TDP2 = target: T1, recombinant human TDP2 (Homo sapiens, UniProt O95551); assay: Recombinant TDP2 assay; assay type: biochemical; settings: for Inhibition of recombinant TDP2 (in words): recombinant human TDP2, concentrations up to 111 μM
T1 sequence (O95551 1-362): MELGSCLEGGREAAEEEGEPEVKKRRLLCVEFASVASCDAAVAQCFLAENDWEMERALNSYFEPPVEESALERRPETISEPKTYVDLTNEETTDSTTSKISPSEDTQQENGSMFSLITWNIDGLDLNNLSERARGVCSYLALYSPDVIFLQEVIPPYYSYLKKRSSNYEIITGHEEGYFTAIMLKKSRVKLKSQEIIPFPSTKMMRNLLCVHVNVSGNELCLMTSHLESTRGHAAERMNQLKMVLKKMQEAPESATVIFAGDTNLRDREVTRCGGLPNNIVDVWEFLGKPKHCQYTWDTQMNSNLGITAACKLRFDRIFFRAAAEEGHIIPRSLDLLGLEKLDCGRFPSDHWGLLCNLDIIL

[1] = target: T2, human TDP2 (hTDP2) whole cell extracts (Homo sapiens, UniProt O95551); assay: Whole cell extract; assay type: biochemical
T2 sequence (O95551 1-362): T1 sequence (O95551 1-362)

TDP1 = TDP1 (Homo sapiens, UniProt Q9NUW8); assay: TDP1 counter assay; assay type: biochemical; settings: highest testing concentration 111 μM
Chain of TDP1 (Q9NUW8 whole entry): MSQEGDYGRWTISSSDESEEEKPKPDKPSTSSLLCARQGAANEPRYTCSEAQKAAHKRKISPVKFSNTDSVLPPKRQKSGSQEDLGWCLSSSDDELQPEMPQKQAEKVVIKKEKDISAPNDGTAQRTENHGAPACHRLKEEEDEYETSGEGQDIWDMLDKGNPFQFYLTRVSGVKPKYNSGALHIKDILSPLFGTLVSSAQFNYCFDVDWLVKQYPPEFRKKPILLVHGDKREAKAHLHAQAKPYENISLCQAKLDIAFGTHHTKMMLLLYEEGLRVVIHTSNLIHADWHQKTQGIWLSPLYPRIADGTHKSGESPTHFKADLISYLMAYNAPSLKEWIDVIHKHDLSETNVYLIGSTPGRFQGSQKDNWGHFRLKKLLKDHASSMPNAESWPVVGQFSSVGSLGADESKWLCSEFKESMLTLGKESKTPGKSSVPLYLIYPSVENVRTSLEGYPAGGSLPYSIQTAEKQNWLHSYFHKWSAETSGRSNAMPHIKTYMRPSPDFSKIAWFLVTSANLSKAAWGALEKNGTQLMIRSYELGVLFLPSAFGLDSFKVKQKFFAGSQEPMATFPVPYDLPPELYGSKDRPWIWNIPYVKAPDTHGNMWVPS

Compound	Synergy in combination with ETP (hTDP2 DT40 cells)	Inhibition of recombinant TDP2 (in words) (recombinant human TDP2)	other results
O=C1Cc2cc(I)ccc2C(=O)N1 [Compound 36, 6-Iodoisoquinoline-1,3(2H,4H)-dione]	not observed	–	–
O=C1Cc2cccc(-c3cccc([N+](=O)[O-])c3)c2C(=O)N1 [Compound 57, 8-(3-Nitrophenyl)isoquinoline-1,3(2H,4H)-dione]	–	substantially reduced inhibitory activity	–
O=C1Cc2c(Br)cccc2C(=O)N1 [Compound 34, 5-Bromoisoquinoline-1,3(2H,4H)-dione]	–	inactive	–
O=C1Cc2cc(-c3ccco3)ccc2C(=O)N1O [Compound 46, 6-(Furan-2-yl)-2-hydroxyisoquinoline-1,3(2H,4H)-dione]	–	inactive	Inhibition of endogenous TDP2 in WCE (in words) [1]: inactive
O=C1Cc2c(cccc2-c2cccc([N+](=O)[O-])c2)C(=O)N1 [Compound 58, 5-(3-Nitrophenyl)isoquinoline-1,3(2H,4H)-dione]	–	inactive	–
O=C1Cc2c(cccc2-c2ccco2)C(=O)N1 [Compound 45, 5-(Furan-2-yl)isoquinoline-1,3(2H,4H)-dione]	–	inactive	–
O=C1Cc2ccc(C(=O)O)cc2C(=O)N1 [Compound 40, 1,3-Dioxo-1,2,3,4-tetrahydroisoquinoline-7-carboxylic Acid]	not observed	–	–
O=C1Cc2cccc(-c3cccc(O)c3)c2C(=O)N1 [Compound 53, 8-(3-Hydroxyphenyl)isoquinoline-1,3(2H,4H)-dione]	–	substantially reduced inhibitory activity	–
O=C1Cc2cc(-c3nc4ccccc4s3)ccc2C(=O)N1 [Compound 84]	not observed	–	–
O=C1Cc2cc(-c3ccco3)ccc2C(=O)N1 [Compound 43, 6-(Furan-2-yl)isoquinoline-1,3 (2H,4H)-dione]	not observed	–	pIC50 (recombinant human TDP2): 5.07; Inhibition of TDP1 (counter assay) (TDP1): no inhibition

— paper PMC7832085 (Journal of medicinal chemistry, 2016)
